# Measurements from patent publication US12616203B2, “Use of 3-isoxazolidinones compounds as selective herbicides” (FMC Corporation, priority 2014, dated 2026).
# Legend:
# [1] = system: corn poppy (CP); assay: Ex2 PRE greenhouse, % control; format: in vivo, Papaver rhoeas; settings: 21 DAT, g ai/ha by row: r12-40 2,4-DC 31.25/62.5/125/250/375 (3 rows each) + metazachlor 250/500/750 (cycling), r42-46 2,4-DC 31.25/62.5/125/250/375, r47-49 metazachlor 250/500/750
# Procedure: (§1) Test compositions containing 2,4 DC Example 1B and metazachlor (Butisan® S, 43.1% active ingredient, BASF) and mixtures of 2-(2,4-dichlorophenyl)methyl-4,4-dimethyl-3-isoxazolidinone and metazachlor, were diluted with water to provide the appropriate test rate concentrations.
# (§2) The test crops were wheat and canola (Brassica napus), the test weeds were Italian ryegrass (IR) (Lolium perenne. multiflorum), annual bluegrass (AB) (Poa annua), common lambsquarters (CL) (Chenopodium album), littleseed canarygrass (LC) (Phalaris minor), common chickweed (CC) (Stellaria media), and corn poppy (CP) (Papaver rhoeas).
# (§3) For pre-emergence testing, four disposable fiber flats (6″ by 10″) for each rate of application of each herbicide solution were filled with top soil, to which seeds of each species were planted in furrows made by a template pressed on the top of the soil. The furrows were covered with soil after planting the seed and were watered well before application of the test compounds. […]
# (§4) The control of weeds was evaluated in each experimental test at 21 days after treatment (DAT) for corn poppy and wheat and 28 DAT for all other species. […]
# (§5) Percent control was determined by a method similar to the 0 to 100 rating system disclosed in “Research Methods in Weed Science,” 2nd ed., B. Truelove, Ed.; Southern Weed Science Society; Auburn University, Auburn, Ala., 1977.
# [2] = system: annual bluegrass (AB); assay: Ex2 PRE greenhouse, % control; format: in vivo, Poa annua; settings: 28 DAT, g ai/ha by row: r12-40 2,4-DC 31.25/62.5/125/250/375 (3 rows each) + metazachlor 250/500/750 (cycling), r42-46 2,4-DC 31.25/62.5/125/250/375, r47-49 metazachlor 250/500/750
# Procedure: as §1, §2, §3, §4, §5
# [3] = system: Italian ryegrass (IR); assay: Ex2 PRE greenhouse, % control; format: in vivo, Lolium perenne. multiflorum; settings: 28 DAT, g ai/ha by row: r12-40 2,4-DC 31.25/62.5/125/250/375 (3 rows each) + metazachlor 250/500/750 (cycling)
# Procedure: as §1, §2
# For pre-emergence testing, four disposable fiber flats (6″ by 10″) for each rate of application of each herbicide solution were filled with top soil, to which seeds of each species were planted in furrows made by a template pressed on the top of the soil. The furrows were covered with soil after planting the seed and were watered well before application of the test compounds.
# Fiber flats designated for treatment were placed in a spray chamber having a static platform and a movable sprayer and height of the spray nozzle was 10.5 inches above the soil level. Once the sprayer was calibrated using water for spray volume of 30 gallons per acre, flats were sprayed with sprayer at a speed to receive a coverage equivalent of 30 gallons per acre. The application rates are those shown in Table 1 below for the individual herbicidal solutions and the herbicide compositions of the present invention. The pre-emergence flats were immediately placed in the greenhouse and watered lightly after treatment. Thereafter they were regularly watered and fertilized for the duration of the test.
# The control of weeds was evaluated in each experimental test at 21 days after treatment (DAT) for corn poppy and wheat and 28 DAT for all other species. The results, shown as an average of the replications were compared with results observed in untreated control flats in the same tests.
# as §5
# [4] = system: common lambsquarters (CL); assay: Ex2 PRE greenhouse, % control; format: in vivo, Chenopodium album; settings: 28 DAT, g ai/ha by row: r12-40 2,4-DC 31.25/62.5/125/250/375 (3 rows each) + metazachlor 250/500/750 (cycling), r42-46 2,4-DC 31.25/62.5/125/250/375, r47-49 metazachlor 250/500/750
# Procedure: as §1, §2, §3, §4, §5
# [5] = system: littleseed canarygrass (LC); assay: Ex2 PRE greenhouse, % control; format: in vivo, Phalaris minor; settings: 28 DAT, g ai/ha by row: r12-40 2,4-DC 31.25/62.5/125/250/375 (3 rows each) + metazachlor 250/500/750 (cycling)
# Description: Fiber flats designated for treatment were placed in a spray chamber having a static platform and a movable sprayer and height of the spray nozzle was 10.5 inches above the soil level. Once the sprayer was calibrated using water for spray volume of 30 gallons per acre, flats were sprayed with sprayer at a speed to receive a coverage equivalent of 30 gallons per acre. […] The pre-emergence flats were immediately placed in the greenhouse and watered lightly after treatment. Thereafter they were regularly watered and fertilized for the duration of the test.
# [6] = system: common chickweed (CC); assay: Ex2 PRE greenhouse, % control; format: in vivo, Stellaria media; settings: 28 DAT, g ai/ha by row: r12-40 2,4-DC 31.25/62.5/125/250/375 (3 rows each) + metazachlor 250/500/750 (cycling), r42-46 2,4-DC 31.25/62.5/125/250/375, r47-49 metazachlor 250/500/750
# Procedure: as §1, §2, §3, §4, §5
# [7] = system: weeds; assay: Ex18 PRE greenhouse; format: in vivo; settings: weed and rate in the words
# Description: Additional treatments included application of metazachlor (Butisan®, 43.1%) at 750 g ai/ha, napropamide (Devrinol DF®, 50%) at 1260 g ai/ha, and dimethachlor (Teridox®, 48%) at 1000 g ai/ha. […] Treatments were applied just after the seeding of annual bluegrass, cheat, wild oat, quackgrass, field violet, blackgrass, littleseed canarygrass, silky windgrass, yellow foxtail, and goosegrass. […] Flats were watered and fertilized routinely after treatment application. Each treatment was replicated three times.
# [8] = system: weeds; Wheat and canola; assay: Ex27 PRE greenhouse; format: in vivo; settings: weed and rate in the words
# Description: The weeds tested in this study were Italian ryegrass (Lolium perenne. multiflorum, LOLMU), wild mustard (Sinapis arvensis, SINAR), annual bluegrass (Poa annua POAAN), wild oat (Avena fatua, AVEFA), blackgrass (Alopecurus myosuroides, ALOMY), common lambsquarters (Chenopodium album […] (Phalaris minor, PHAMI), common chickweed (Stellaria media, STEME), corn poppy (Papaver rhoeas PAPRH). The crops tested were Wheat and canola. […] Treatments were applied before the emergence of Italian ryegrass, wild oat, blackgrass, littleseed canarygrass, common chickweed, common lambsquarters, corn poppy, wild mustard, annual bluegrass, canola, and wheat. […] Flats were watered and fertilized routinely after treatment application. […] Wheat and corn poppy were rated at 14 and 21 DAT only.
# [9] = r42-46 2,4-DC 31.25/62.5/125/250/375, r47-49 metazachlor 250/500/750, 250 g ai/ha
# [10] = r42-46 2,4-DC 31.25/62.5/125/250/375, r47-49 metazachlor 250/500/750, 500 g ai/ha
structure (smiles),measurement,setting,value
"Cc1cccc(C)c1N(Cn1cccn1)C(=O)CCl [Metazachlor, metazachlor]",% Control CP,[1],100%
same,% Control AB,[2],100%
same,% Control IR,[3]; [9],96%
same,% Control IR,[3]; [10],98%
same,% Control IR,"[3]; r42-46 2,4-DC 31.25/62.5/125/250/375, r47-49 metazachlor 250/500/750, 750 g ai/ha",99%
same,% Control CL,[4],100%
same,% Control LC,[5]; [9],99%
same,% Control LC,[5]; [10],100%
same,% Control CC,[6],100%
same,weed control in words,[7],controlled all weeds
same,weed control in words,[8],alone controlled blackgrass at 750 g
